Data published in ChEMBL document CHEMBL5329216, “Discovery of conformationally constrained c-Abl inhibitors with potential neuroprotective effects against Parkinson's disease” (Bioorg Med Chem, 2023).

Legend:
[1] = Cytotoxicity against HEK293 cells assessed as reduction in cell viability incubated for 48 hrs by MTT assay; type: toxicity, cell-based; conditions: human
[2] = Cytotoxicity against human L02 cells assessed as reduction in cell viability incubated for 48 hrs by MTT assay; type: toxicity, cell-based
SH-SY5Y [3] = assay: Neuroprotective activity against MPP+-induced human SH-SY5Y cells assessed as reduction in cell death at 0.08 to 5 uM measured after 48 hrs by MTT assay relative to control; type: functional; parameters: scale not given: the % may be the effect or the level left; conditions: dose 0.08-5 µM
SH-SY5Y [4] = assay: Neuroprotective activity against MPP+-induced human SH-SY5Y cells assessed as reduction in cell death at 5 uM measured after 48 hrs by MTT assay relative to control; type: functional; parameters: scale not given: the % may be the effect or the level left
[5] = Cytotoxicity against human SH-SY5Y cells assessed as reduction in cell viability incubated for 48 hrs by MTT assay; type: toxicity, cell-based

Row | SMILES | IC50 at 48 h [1] [µM] | IC50 at 48 h [2] [µM] | Activity (SH-SY5Y [3]) [%] | Activity (SH-SY5Y [4]) [%] | IC50 at 48 h [5] [µM]
1 | Cc1cn(-c2cc(NC(=O)c3ccc(C)c(Nc4nccc(-c5cccnc5)n4)c3)cc(C(F)(F)F)c2)cn1 [NILOTINIB] | 8.2 | 37 | 6.9 | 20 | 
2 | Cc1ccc(C(=O)Nc2cc(-c3cnn(C)c3)cc(C(F)(F)F)c2)cc1Nc1cccc2c1C(=O)C(=O)N2C | > 80 | > 80 |  |  | > 80
3 | Cc1ccc(C(=O)Nc2ccc(CN3CCN(C)CC3)c(C(F)(F)F)c2)cc1Nc1cccc2c1C(=O)C(=O)N2C | 16.6 | > 80 |  |  | 23.6
